Measured values taken from US9416099B2 (priority 2010, dated 2016).
“And” between values parts separate entries of the source, which are not always exact repeats. Equal entries are not always repeated.

Columns and labels:
[1] = format: physicochemical

| SMILES | Adjuvant 1 h, mL separation (1 h) | Anionic 1 h, mL separation (1 h) | Adjuvant 24 h, mL separation (24 h) | Anionic 24 h, mL separation (24 h) | % Separation 1 h [1] | % Separation 24 h [1] | Nonionic 1 h, mL separation (1 h) | Nonionic 24 h, mL separation (24 h) |
| --- | --- | --- | --- | --- | --- | --- | --- | --- |
| C[N+](C)(C)CCCNC(=O)CCCCCCCCC(CCCCCCCC(=O)NCCC[N+](C)(C)C)S(=O)(=O)O.[Na+] (centres unmarked) [C18-28, C18 DiDMAPA DiQuat Sulfonate] | 0 mL | 0 mL | 0 mL | 0 mL | 4% and 3.4% | 4.5% and 3.9% |  |  |
| C[N+](C)(CCCNC(=O)CCCCCCCCC(CCCCCCCC(=O)NCCC[N+](C)(C)CC(=O)[O-])S(=O)(=O)[O-])CC(=O)[O-].[Na+] (centres unmarked) [C18-33, C18 DiBetaine Sulfonate] | 0 mL | 0 mL | 0 mL | 0 mL | 4% and 3% | 4.5% and 3.4% | 1 mL | 1 mL |
